What is called IC50 is the concentration that inhibits the measured activity by half.

Our source for the IC50 values is patent US7709482B2, “Polycyclic heteroaryl substituted triazoles useful as Axl inhibitors” (Rigel Pharmaceuticals, Inc., priority 2006, dated 2010).

The first assay addresses T1, Axl (Homo sapiens, UniProt P30530).
T1 construct: endogenous in cells; host or cells: HeLa cells
T1 sequence (P30530 26-894): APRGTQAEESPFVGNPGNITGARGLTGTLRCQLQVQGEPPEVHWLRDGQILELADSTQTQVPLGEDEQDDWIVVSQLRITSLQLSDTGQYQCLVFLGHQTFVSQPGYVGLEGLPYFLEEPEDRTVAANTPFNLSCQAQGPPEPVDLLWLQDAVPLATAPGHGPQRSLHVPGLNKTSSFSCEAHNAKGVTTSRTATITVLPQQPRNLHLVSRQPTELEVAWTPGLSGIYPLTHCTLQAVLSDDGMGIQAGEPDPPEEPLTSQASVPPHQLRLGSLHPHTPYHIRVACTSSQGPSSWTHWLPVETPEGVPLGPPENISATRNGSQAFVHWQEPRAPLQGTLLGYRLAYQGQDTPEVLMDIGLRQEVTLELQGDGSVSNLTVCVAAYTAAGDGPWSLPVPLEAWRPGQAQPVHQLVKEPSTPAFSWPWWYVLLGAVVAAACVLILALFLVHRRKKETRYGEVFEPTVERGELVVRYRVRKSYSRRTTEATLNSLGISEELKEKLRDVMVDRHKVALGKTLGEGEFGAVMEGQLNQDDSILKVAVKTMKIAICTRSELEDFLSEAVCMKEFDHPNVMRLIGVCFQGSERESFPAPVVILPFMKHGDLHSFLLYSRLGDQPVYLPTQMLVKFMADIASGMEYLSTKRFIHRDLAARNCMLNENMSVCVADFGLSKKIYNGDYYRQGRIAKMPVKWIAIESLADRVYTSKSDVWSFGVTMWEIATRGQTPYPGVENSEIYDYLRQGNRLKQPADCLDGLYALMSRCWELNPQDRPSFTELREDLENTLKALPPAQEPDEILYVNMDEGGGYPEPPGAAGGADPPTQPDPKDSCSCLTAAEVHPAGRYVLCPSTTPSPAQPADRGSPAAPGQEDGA
Nature of the assay: Phospho-Akt In-Cell Western Assay (inhibition of Axl activity after Axl-antibody cross-linking). Format: cell-based.
Details: not given
The essentials: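 Phospho-Akt was detected in formaldehyde-fixed cells by in-cell immunostaining with HRP chemiluminescence. Before fixation, HeLa cells kept 24 h in low-serum medium containing 500 ng/mL Axl/Fc received compound for 1 h at 37 °C, followed by 5-min Axl activation through antibody clustering.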
`Nc1nc(Nc2ccc(N3CCC(N4C(=O)Cc5ccccc54)CC3)c(F)c2)nn1-c1cc2c(nn1)-c1ccccc1CCC2` [Compound 7, 1-(6,7-dihydro-5H-benzo[6,7]cyclohepta[1,2-c]pyridazin-3-yl)-N^3-(3-fluoro-4-(4-(indolin-2-on-1-yl)piperidin-1-yl)phenyl)-1H-1,2,4-triazole-3,5-diamine]: the IC50 is more than 20000 nM.

The same assay, now with this note: Hela cells, phospho-Akt chemiluminescence normalized to relative cell number; compounds of formula (Ia), Table 1; read-out: IC50.
For the molecule `CN1CCN(C(=O)C2CCc3ncc(Nc4nc(N)n(-c5cc6c(nn5)-c5ccccc5CCC6)n4)cc3C2)CC1` (stereo not shown) [Compound 31, 1-(6,7-dihydro-5H-benzo[6,7]cyclohepta[1,2-c]pyridazin-3-yl)-N^3-(6-(4-methylpiperazin-1-yl)carbonyl-5,6,7,8-tetrahydroquinolin-3-yl)-1H-1,2,4-triazole-3,5-diamine], the IC50 is less than 1000 nM.
On the same count and under the same terms, the figure for `Nc1ccc(-c2ccc(Nc3nc(N)n(-c4cc5c(nn4)-c4ccccc4CCC5)n3)cn2)cn1` [Compound 94, 1-(6,7-dihydro-5H-benzo[6,7]cyclohepta[1,2-c]pyridazin-3-yl)-N^3-(6-(6-aminopyridin-3-yl)pyridine-3-yl)-1H-1,2,4-triazole-3,5-diamine] is more than 20000 nM.
`CC(C)N1CCN(Cc2ccc(Nc3nc(N)n(-c4cc5c(nn4)-c4ccccc4CCC5)n3)cc2)CC1` [Compound 108, 1-(6,7-dihydro-5H-benzo[6,7]cyclohepta[1,2-c]pyridazin-3-yl)-N^3-(4-((4-isopropylpiperazinyl)methyl)-phenyl)-1H-1,2,4-triazole-3,5-diamine]: the half-maximal inhibitory concentration (IC50) is less than 1000 nM.
Still for that read-out and setting: next, `CN1CCN(C2CCN(c3ccc(Nc4nc(N)n(-c5cc6c(nn5)-c5ccccc5CCC6)n4)cn3)CC2)CC1` [Compound 30, 1-(6,7-dihydro-5H-benzo[6,7]cyclohepta[1,2-c]pyridazin-3-yl)-N^3-(6-(4-(4-methylpiperazin-1-yl)piperidin-1-yl)pyridine-3-yl)-1H-1,2,4-triazole-3,5-diamine]: less than 1000 nM.
The same measure, in the same setting: next, `Nc1nc(Nc2ccc(N3CCCC(N4CCCC4)C3)c(F)c2)nn1-c1cc2c(nn1)-c1ccccc1CCC2` (stereo not shown) [Compound 68, 1-(6,7-dihydro-5H-benzo[6,7]cyclohepta[1,2-c]pyridazin-3-yl)-N^3-(3-fluoro-4-(3-pyrrolidin-1-yl-piperidin-1-yl)phenyl)-1H-1,2,4-triazole-3,5-diamine]: less than 1000 nM; `Nc1nc(Nc2ccc(N3CCN(C4CC5CCC4C5)CC3)cc2)nn1-c1cc2c(nn1)-c1ccccc1CCC2` (stereo not shown) [Compound 33, 1-(6,7-dihydro-5H-benzo[6,7]cyclohepta[1,2-c]pyridazin-3-yl)-N^3-(4-(4-(bicyclo[2.2.1]heptan-2-yl)piperazin-1-yl)phenyl)-1H-1,2,4-triazole-3,5-diamine]: 1000 to 10000 nM.
With `Nc1nc(Nc2ccc(N3CCCN(C4CCCC4)CC3)nc2)nn1-c1cc2c(nn1)-c1ccccc1CCC2` [Compound 25, 1-(6,7-dihydro-5H-benzo[6,7]cyclohepta[1,2-c]pyridazin-3-yl)-N^3-(6-(4-cyclopentyl-1,4-diazepan-1-yl)pyridin-3-yl)-1H-1,2,4-triazole-3,5-diamine], the IC50 is less than 1000 nM.
Regarding `CC1CCN(C2CCN(c3ccc(Nc4nc(N)n(-c5cc6c(nn5)-c5ccccc5CCC6)n4)cc3F)CC2)CC1` [Compound 59, 1-(6,7-dihydro-5H-benzo[6,7]cyclohepta[1,2-c]pyridazin-3-yl)-N^3-(3-fluoro-4-(4-(4-methylpiperidin-1-yl)piperidin-1-yl)phenyl)-1H-1,2,4-triazole-3,5-diamine], the IC50 was less than 1000 nM.
On the same count and under the same terms, next, `Nc1nc(Nc2ccc(N3CCC(N4CCOCC4)CC3)c(F)c2)nn1-c1cc2c(nn1)-c1ccccc1CCC2` [Compound 9, 1-(6,7-dihydro-5H-benzo[6,7]cyclohepta[1,2-c]pyridazin-3-yl)-N^3-(3-fluoro-4-(4-(morpholin-4-yl)piperidin-1-yl)phenyl)-1H-1,2,4-triazole-3,5-diamine]: 1000 to 10000 nM.
Take `Nc1nc(Nc2ccc(OCCN3CCCC3)c(F)c2)nn1-c1cc2c(nn1)-c1cc(F)ccc1CCC2` [Compound 54, 1-(6,7-dihydro-5H-10-fluorobenzo[6,7]cyclo-hepta[1,2-c]pyridazin-3-yl)-N^3-(3-fluoro-4-(2-(pyrrolidin-1-yl)ethoxy)phenyl)-1H-1,2,4-triazole-3,5-diamine]: the IC50 was less than 1000 nM.
For `Nc1nc(Nc2cccnc2)nn1-c1cc2c(nn1)-c1ccccc1CCC2` [Compound 93, 1-(6,7-dihydro-5H-benzo[6,7]cyclohepta[1,2-c]pyridazin-3-yl)-N^3-(pyridin-3-yl)-1H-1,2,4-triazole-3,5-diamine], the IC50 is more than 20000 nM.

The assay is the same for the next values; noted with them: Hela cells, phospho-Akt chemiluminescence normalized to relative cell number; compounds of formula (Ib), Table 2; read-out: IC50.
Consider `CN1CCC(N2CCc3ccc(Nc4nc(N)nn4-c4cc5c(nn4)-c4ccccc4CCC5)cc3C2)CC1` [Compound 245, 1-(6,7-dihydro-5H-benzo[6,7]cyclohepta[1,2-c]pyridazin-3-yl)-N^5-(2-(1-methylpiperidin-4-yl)-1,2,3,4-tetrahydroisoquinolin-7-yl)-1H-1,2,4-triazole-3,5-diamine], for which the half-inhibitory concentration (IC50) lay in the range of 1000 to 10000 nM.
In the case of `CC(C)N1CCN(Cc2ccc(Nc3nc(N)nn3-c3cc4c(nn3)-c3ccccc3CCC4)cc2)CC1` [Compound 167, 1-(6,7-dihydro-5H-benzo[6,7]cyclohepta[1,2-c]pyridazin-3-yl)-N^5-(4-((4-isopropylpiperazinyl)methyl)phenyl)-1H-1,2,4-triazole-3,5-diamine], the IC50 is 1000 to 10000 nM.
For the molecule `CN(C1CCc2ccc(Nc3nc(N)nn3-c3cc4c(nn3)-c3ccccc3CCC4)cc2CC1)C1CC2CCC1C2` (stereo not shown) [Compound 161, 1-(6,7-dihydro-5H-benzo[6,7]cyclohepta[1,2-c]pyridazin-3-yl)-N^5-(7-((bicyclo[2.2.1]heptan-2-yl)(methyl)amino)-6,7,8,9-tetrahydro-5H-benzo[7]annulene-2-yl)-1H-1,2,4-triazole-3,5-diamine], the IC50 fell in the range of 1000 to 10000 nM.

The same assay, now with this note: inhibition of Axl activity; Table 1, compounds of formula (Ia); read-out: IC50.
On to `Nc1nc(Nc2ccc(I)cc2)nn1-c1cc2c(nn1)-c1ccccc1CCC2` [Compound 156, 1-(6,7-dihydro-5H-benzo[6,7]cyclohepta[1,2-c]pyridazin-3-yl)-N^3-(4-iodophenyl)-1H-1,2,4-triazole-3,5-diamine], for which the half-inhibitory concentration (IC50) is more than 20000 nM.
On to `Nc1nc(Nc2ccc(N3CCN(C4CCCCC4)CC3)c(F)c2)nn1-c1cc(-c2ccccc2)c2c(n1)-c1ccccc1CCC2` [Compound 192, 1-(4-phenyl-6,7-dihydro-5H-benzo[6,7]cyclohepta[1,2-b]pyridin-2-yl)-N^3-(3-fluoro-4-(4-cyclohexylpiperazin-1-yl)phenyl)-1H-1,2,4-triazole-3,5-diamine], for which the IC50 fell in the range of 10000 to 20000 nM.
For `Nc1nc(Nc2ccc(N3CCN(CC4CC4)CC3)c(F)c2)nn1-c1cc2c(nn1)-c1ccccc1CCC2` [Compound 214, 1-(6,7-dihydro-5H-benzo[6,7]cyclohepta[1,2-c]pyridazin-3-yl)-N^3-(3-fluoro-4-(4-cyclopropylmethylpiperazin-1-yl)phenyl)-1H-1,2,4-triazole-3,5-diamine], the IC50 was less than 1000 nM.
As for `CN(C)[C@@H]1CCN(c2ccc(Nc3nc(N)n(-c4cc5c(nn4)-c4ccccc4CCC5)n3)cc2F)C1` [Compound 180, 1-(6,7-dihydro-5H-benzo[6,7]cyclohepta[1,2-c]pyridazin-3-yl)-N^3-(3-fluoro-4-(3-(3R)-dimethylaminopyrrolidin-1-yl)phenyl)-1H-1,2,4-triazole-3,5-diamine], the IC50 is less than 1000 nM.
Regarding `CN(C)CCN1CCN(C(=O)c2cc3cc(Nc4nc(N)n(-c5cc6c(nn5)-c5ccccc5SCC6)n4)ccc3s2)CC1` [Compound 131, 1-(6,7-dihydro-5H-benzo[2,3]thiepino[4,5-c]pyridazin-3-yl)-N^3-(2-(1-(4-(2-(dimethylamino)ethyl)-piperazin-1-yl)oxomethyl)benzo[b]thio-phen-5-yl)-1H-1,2,4-triazole-3,5-diamine], the concentration for half-maximal inhibition (IC50) lay in the range of 1000 to 10000 nM.
As to `C[C@H]1CCCN1C1CCc2ccc(Nc3nc(N)n(-c4cc5c(nn4)-c4ccccc4CCC5)n3)cc2CC1` (stereo partly drawn) [Compound 218, 1-(6,7-dihydro-5H-benzo[6,7]cyclohepta[1,2-c]pyridazin-3-yl)-N^3-(7-(2-(S)-methylpyrrolidin-1-yl)-6,7,8,9-tetrahydro-5H-benzo[7]annulene-2-yl)-1H-1,2,4-triazole-3,5-diamine], the IC50 was less than 1000 nM.
In the case of `Nc1nc(Nc2ccc3c(c2)CN(CC2CC2)CC3)nn1-c1cc2c(nn1)-c1ccccc1CCC2` [Compound 216, 1-(6,7-dihydro-5H-benzo[6,7]cyclohepta[1,2-c]pyridazin-3-yl)-N^3-(2-(cyclopropylmethyl)-1,2,3,4-tetrahydroisoquinolin-7-yl)-1H-1,2,4-triazole-3,5-diamine], the IC50 is less than 1000 nM.
